Test results: patent US20090148426A1, “COMPOSITION FOR LIFE EXTENSION AND METHOD OF EXTENDING THE LIFE” (priority 2005, published 2009)

Key:
[1] = test system: senescence-accelerated model mice (SAMP8); assay: Motor activities of senescence-accelerated model mice (SUPERMEX); format: in vivo, mouse; details: for Motor activities (Count) / Motor activities, relative proportion to the control group (control = 100): feedstuff containing 0.4%, 11th month after start of test; for Motor activities (Count): average from 16 o'clock to 9 o'clock next morning, n=4 to 7; for Motor activities, relative proportion to the control group (control = 100): control group level taken as 100; for Inhibition of deterioration of the motor activity (in words): ingestion with feedstuff containing 0.4%
Description: (§1) Three groups were set as follows. One is a group, to which feedstuff (CE-2, a product of CLEA Japan, Inc.) containing 0.4% of reduced coenzyme Q10 produced in Production Example 1 (containing about 1% by weight of oxidized coenzyme Q10) was given. Another group is a group, to which feedstuff (CE-2, a product of CLEA Japan, Inc.) containing 0.4% of commercially-available oxidized coenzyme Q10 (100% oxidized coenzyme Q10, a product of Kaneka Corporation) was given. The rest is a control group, to which only basic feedstuff (CE-2, a product of CLEA Japan, Inc.) was given. Each group consisted of 8 to 10 senescence-accelerated model mice (SAMP8, 3-week old, male). Each group was allowed free access to the feedstuff. During the test period, measurements of motor activities and recording of the number of dead mice were periodically performed. The dose of reduced and oxidized coenzyme Q10 as estimated from the feed consumption and animal body weight corresponded to about 300 to 500 mg/kg/day.
(§2) Results are illustrated in Tables 1 and 2. Table 1 illustrates the survival rates in the control group, the reduced coenzyme Q10-ingested group, and the oxidized coenzyme Q10-ingested group at the 13th month after the start of the test. Each data consists of n=8 to 10. The survival rate was assayed by the Kaplan-Meier method. The symbol “*” expresses that there is a significant difference relative to the control group at the degree of risk of 5%. Table 2 illustrates averages of motor activities (measuring apparatus: SUPERMEX, a product of Muromachi machinery) over a period from 16 o'clock to 9 o'clock in the morning of next day, and the relative proportions to the control group, estimated by assuming the level of the control group as 100. The data illustrated in Table 2 are values for each of the control group, the reduced coenzyme Q10-ingested group, and the oxidized coenzyme Q10-ingested group at the 11th month after the start of the test. Each data consist of n=4 to 7, and significant difference was tested by t-test.

[2] = test system: senescence-accelerated model mice (SAMP8); assay: Life extending effect for a senescence-accelerated model mouse (survival rate); format: in vivo; details: for Survival Rate (%): SAMP8 male mice, feedstuff containing 0.4% (about 300 to 500 mg/kg/day), 13th month after start of test, Kaplan-Meier, n=8 to 10; for Extension of a life span (in words): SAMP8 mice, ingestion with feedstuff containing 0.4%
Description: In order to evaluate these life extension effects, a special senescence-accelerated model mouse (for example, SAMP8), which has a shorter lifetime than a common mouse, may be used as a model for evaluations in vivo, for example. […] This mouse is very useful model for evaluating effects over a life span. The aging states shown in this mouse extremely resembles the aging states of humans, and is also useful to evaluate the health condition of humans in a senectitude.
as §1, §2

rats [3] = details: rats bred with unsaturated fatty acid-enriched feed; cited from earlier work
mice = details: cited from earlier work
rats [4] = details: every day over 52 weeks at 1,200 mg/kg/day; cited from earlier work

Compound: COc1c(O)c(C)c(C/C=C(\C)CC/C=C(\C)CC/C=C(\C)CC/C=C(\C)CC/C=C(\C)CC/C=C(\C)CC/C=C(\C)CC/C=C(\C)CC/C=C(\C)CCC=C(C)C)c(O)c1OC [Reduced coenzyme Q10, reduced coenzyme Q10]
- Motor activities (Count) [1]: 17520 Count
- Motor activities, relative proportion to the control group (control = 100) [1]: (163)
- Inhibition of deterioration of the motor activity (in words) [1]: inhibition of deterioration of the motor activity
- Survival Rate (%) [2]: 75%
- Extension of a life span (in words) [2]: remarkable extension of a life span

Compound: ubiquinone
- Effect on life span of rats (rats [3]): extended the life span of the rat
- Effect on life span of mice (mice): did not affect the life span of mice

Compound: COC1=C(OC)C(=O)C(C/C=C(\C)CC/C=C(\C)CC/C=C(\C)CC/C=C(\C)CC/C=C(\C)CC/C=C(\C)CC/C=C(\C)CC/C=C(\C)CC/C=C(\C)CCC=C(C)C)=C(C)C1=O [Oxidized coenzyme Q10, oxidized coenzyme Q10]
- Motor activities (Count) [1]: 12754 Count
- Motor activities, relative proportion to the control group (control = 100) [1]: (119)
- Inhibition of deterioration of the motor activity (in words) [1]: slightly improved
- Survival Rate (%) [2]: 40%
- Extension of a life span (in words) [2]: slightly improved

Compound: COC1=C(OC)C(=O)C(C/C=C(\C)CC/C=C(\C)CC/C=C(\C)CC/C=C(\C)CC/C=C(\C)CC/C=C(\C)CC/C=C(\C)CC/C=C(\C)CC/C=C(\C)CCC=C(C)C)=C(C)C1=O [coenzyme Q10]
- Toxic effect in chronic toxicity test (rats [4]): no toxic effect was observed
